Experimental data: US10640518B2, “Condensed heterocyclic compounds and pesticides” (Nissan Chemical Corporation, priority 2016, dated 2020)

Columns and labels:
Type in all cases: in vivo
Plutella xylostella = experiment: Insecticidal test on Plutella xylostella (cabbage leaf soaking); details: 144 h, 500 ppm solution, cabbage leaves soaked, 3rd-instar larvae, 6 days after, 25° C.
Procedure: Test Example 2: Insecticidal Test on Plutella xylostella
(§1) 10% emulsifiable concentrates (or 10% wettable powders) of compounds of the present invention were diluted with water containing a spreader to obtain 500 ppm solutions. Leaves of cabbage were soaked in the solutions for about 10 seconds. After the soaking, the leaves were dried in air and placed in dishes. In each dish, five 3rd-instar larvae of Plutella xylostella were released, and the dishes were covered with lids and placed in an incubator at 25° C. 6 days after, dead insects in the dishes were counted, and the mortality was calculated by using the same equation as in Test Example 1. The test was carried out in duplicate.

Spodoptera litura = experiment: Insecticidal test on Spodoptera litura (cabbage leaf soaking); details: 144 h, 500 ppm solution, cabbage leaves soaked, 3rd-instar larvae, 6 days after, 25° C.
Procedure: Test Example 3: Insecticidal Test on Spodoptera litura
as §1, with “Spodoptera litura” for “Plutella xylostella”

[1] = tested on: Frankliniella occidentalis; experiment: Insecticidal activity on Frankliniella occidentalis (spray on kidney bean leaves); details: 48 h, 500 ppm solution sprayed (2.5 mg/cm^2), larvae on kidney bean leaves, 2 days after
Procedure: Test Example 4: Insecticidal Activity on Frankliniella occidentalis
In styrol cups having an inner diameter of 7 cm, wet filter paper was laid, kidney bean leaves cut into a 3 cm square were laid on the paper, and each leaf was inoculated with 20 larvae of Frankliniella occidentalis. 10% emulsifiable concentrates (or 10% wettable powders) of compounds of the present invention were diluted with water containing a spreader to obtain 500 ppm solutions. 2.5 ml of the solutions were sprayed from a rotary spray tower into the styrol cups (2.5 mg/cm^2). 2 days after, dead insects were counted, and the insect damage degree on kidney bean leaves was examined. The mortality was calculated by using the same equation as in Test Example 1. The insect damage degree was evaluated from the proportion of the area with insect damage on the leaves, as follows. 1: 0 to 20% insect damage, 2: 20 to 50% insect damage, 3: 50 to 70% insect damage, and 4: 70% or higher insect damage. The test was carried out in duplicate.

Rhipicephalus sanguineus = experiment: Test on the effect on Rhipicephalus sanguineus (thin film contact); details: 96 h, application dose 10 μg/cm^2, protonymphs, 4 days after the release, 25° C.
Procedure: Test Example 10: Test on the Effect on Rhipicephalus sanguineus
(§2) 3.5 mg of compounds of the present invention were diluted with 3.5 ml of acetone to obtain 1,000 ppm solutions. 350 μl of the solutions were applied to the bottoms and the side walls of glass containers with an inner wall surface area of 35 cm^2, and acetone was volatilized to prepare thin films of the compounds on the inner walls of the glass containers. Since the inner wall surface area of each glass container was 35 cm^2, the application dose was 10 μg/cm^2.
(§3) To each glass container, five protonymphs (male and female) of Rhipicephalus sanguineus were released, and the containers were covered with lids and placed in an incubator at 25° C. 4 days after the release of the ticks, dead ticks were counted, and the mortality was calculated by using the same equation as in Test Example 1.

Ctenocephalides felis = experiment: Test on the effect on Ctenocephalides felis (thin film contact); details: 96 h, application dose 10 μg/cm^2, adults, 4 days after the release, 25° C.
Procedure: Test Example 11: Test on the Effect on Ctenocephalides felis
as §2
as §3, with “adults” for “protonymphs”, “Ctenocephalides felis” for “Rhipicephalus sanguineus”, “fleas,” for “ticks,”, “fleas” for “ticks”

Aedes albopictus = experiment: Insecticidal test on Aedes albopictus (larvae in well plate); details: final concentration 10 ppm, larvae one day after hatching, 3 days after, 25° C.
Procedure: Test Example 17: Insecticidal Test on Aedes albopictus
2 mg of compounds of the present invention were dissolved in 0.2 ml of dimethyl sulfoxide to prepare 1% (w/v) dimethyl sulfoxide solutions. 0.01 ml of the solutions were mixed with 0.99 ml of pure water to prepare 0.01% (w/v) solutions. To 0.3 ml plastic plates (Cellstar 96 well culture plates, manufactured by Greiner Bio-One International GmbH) as test plates, 0.09 ml of distilled water containing 30 larvae of Aedes albopictus one day after hatching was dropped, and 0.01 ml of the 0.01% (w/v) solutions were dropped so that the final concentration would be 10 ppm. The plates were covered with lids and placed in an incubator at 25° C. 3 days after, dead larvae were counted, and the mortality was calculated by using the same equation as in Test Example 1.

Myzus persicae = experiment: Insecticidal test on Myzus persicae (spray); details: 144 h, 500 ppm solution sprayed (2.5 mg/cm^2), apterous adults on cabbage leaves, 6 days after, 25° C.
Procedure: Test Example 5: Insecticidal Test on Myzus persicae
Wet absorbent cotton was laid on glass dishes having an inner diameter of 3 cm, and covered with leaves of cabbage cut into circles having a diameter of 3 cm, and 4 apterous adults of Myzus persicae were released. After a day, 10% emulsifiable concentrates (or 10% wettable powders) of compounds of the present invention were diluted with water containing a spreader to obtain 500 ppm solutions. The solutions were sprayed from a rotary spray tower (2.5 mg/cm^2), and the dishes were covered with lids and placed in an incubator at 25° C. 6 days after, dead insects were counted, and the mortality was calculated by using the same equation as in Test Example 1. The test was carried out in duplicate.

Nilaparvata lugens [2] = experiment: Systemic insecticidal test on Nilaparvata lugens (root dipping); details: 20 ppm solution, rice seedling roots dipped 7 days, 3rd-instar larvae, 6 days after the release
Procedure: Test Example 7: Systemic Insecticidal Test on Nilaparvata lugens
10% emulsifiable concentrates of compounds of the present invention were diluted with tap water to obtain 20 ppm solutions, and root of rice plug seedlings (at the 2-leaf stage) were dipped in the solutions. 7 days after, the rice seedlings were picked and put in test tubes, and in each tube, five 3rd-instar larvae of Nilaparvata luqens were released, and the tubes were capped with sponge and placed in an incubator at 25° C. 6 days after the release of the insects, dead insects were counted, the and the mortality was calculated by using the same equation as in Test Example 1. The test was carried out in duplicate.

Reticulitermes speratus = experiment: Insecticidal test on Reticulitermes speratus (treated river sand); details: 240 h, 0.5 ml of 100 ppm solution on 10 g river sand, adults, 10 days after, 25° C.
Procedure: Test Example 15: Insecticidal Test on Reticulitermes speratus
10% emulsifiable concentrates of the compounds of the present invention were prepared. The emulsifiable concentrates were diluted with water to prepare 100 ppm solutions. 0.5 ml of the solutions were dropped on 10 g of river sand and mixed. In dishes having an inner diameter of 4 cm, 1% agar (2 cm square) was laid, and the treated river sand and a filter paper piece as bait were placed. Adults of Reticulitermes speratus were released in the dishes, and the dishes were placed in an incubator at 25° C. 10 days after, dead insects in the dishes were counted, and the mortality was calculated by using the same equation as in Test Example 1. The test was carried out in duplicate.

Culex pipiens molestus = experiment: Insecticidal test on Culex pipiens molestus (larvae in well plate); details: 24 h
Procedure: Test Example 16: Insecticidal Test on Culex pipiens molestus
2 mg of compounds of the present invention were dissolved in 0.2 ml of dimethyl sulfoxide to prepare 1% (w/v) dimethyl sulfoxide solutions. The solutions were diluted with distilled water by a factor of 100 to prepare 100 ppm solutions. To 1.9 ml plastic plates (Cellstar 24 well plate, manufactured by Greiner Bio-One International GmbH) as test plates, 0.7 ml of water containing 10 to 30 larvae of Culex pipiens molestus one day after hatching, and 0.2 ml of an aqueous suspension of aquarium fish food (TetraMin manufactured by Spectrum Brands Japan) as bait, were dropped. 0.1 ml of the 100 ppm solutions were dropped, and the plates were placed in an incubator at 25° C. 1 day after, dead larvae were counted, and the mortality was calculated by using the same equation as in Test Example 1. The test was carried out in duplicate.

Nilaparvata lugens [3] = experiment: Insecticidal test on Nilaparvata lugens (rice sheath soaking); details: 144 h, 500 ppm solution, rice sheaths soaked, 3rd-instar larvae, 6 days after, 25° C.
Procedure: Test Example 1: Insecticidal Test on Nilaparvata lugens
10% emulsifiable concentrates (or 10% wettable powders) of compounds of the present invention were diluted with water containing a spreader to obtain 500 ppm solutions. Rice sheaths were soaked in the solutions for about 10 seconds. After the soaking, the rice sheaths were dried in air and put in test tubes. In each tube, five 3rd-instar larvae of Nilaparvata luqgens were released, and the tubes were capped with sponge and placed in an incubator at 25° C. 6 days after, dead insects in the test tubes were counted, and the mortality was calculated in accordance with the following equation. The test was carried out in duplicate. Mortality (%)=(the number of dead insects/the number of released insects)×100)

Row | Structure (SMILES) | mortality at 500 ppm (Plutella xylostella) [%] | mortality at 500 ppm (Spodoptera litura) [%] | mortality at 500 ppm [1] [%] | mortality at 10 µg/cm2 (Rhipicephalus sanguineus) [%] | mortality at 10 µg/cm2 (Ctenocephalides felis) [%] | mortality at 10 ppm (Aedes albopictus) [%] | mortality at 500 ppm (Myzus persicae) [%] | mortality at 20 ppm (Nilaparvata lugens [2]) [%] | mortality at 100 ppm (Reticulitermes speratus) [%] | mortality at 100 ppm (Culex pipiens molestus) [%] | mortality at 500 ppm (Nilaparvata lugens [3]) [%]
1 | CCS(=O)(=O)c1c(-c2cn3cnc(C(F)(F)C(F)(F)F)cc3n2)nn2ccc(C(F)(F)F)cc12 [1-3-001a, 2-[3-(ethylsulfonyl)-5-(trifluoromethyl)pyrazolo[1,5-a]pyridin-2-yl]-7-(perfluoroethyl)imidazo[1,2-c]pyrimidine] | ≥ 90 | ≥ 90 | ≥ 50 | ≥ 50 | ≥ 50 | ≥ 70 |  |  |  |  | 
2 | CCS(=O)(=O)c1c(-c2nc3cc(C(F)(F)F)cnc3n2C)nn2cc(-n3ccc(C(F)(F)F)n3)ccc12 [1-1-003a, 2-[3-(ethylsulfonyl)-6-(3-(trifluoromethyl)-1H-pyrazol-1-yl)pyrazolo[1,5-a]pyridin-2-yl]-3-methyl-6-(trifluoromethyl)-3H-imidazo[4,5-b]pyridine] | ≥ 90 | ≥ 90 |  |  | ≥ 50 | ≥ 70 |  |  |  |  | 
3 | CCS(=O)(=O)c1c(-c2cn3nc(C(F)(F)C(F)(F)F)sc3n2)nn2ccc(C(F)(F)F)cc12 [1-5-001a, 6-[3-(ethylsulfonyl)-5-(trifluoromethyl)pyrazolo[1,5-a]pyridin-2-yl]-2-(perfluoroethyl)imidazo[2,1-b][1,3,4]thiadiazole] | ≥ 90 | ≥ 90 |  | ≥ 50 | ≥ 50 | ≥ 70 |  |  |  |  | 
4 | CCS(=O)(=O)c1c(-c2nc3cc(C(F)(F)F)cnc3n2C)nn2cc(Cl)ccc12 [1-1-001a, 2-[6-chloro-3-(ethylsulfonyl)pyrazolo[1,5-a]pyridin-2-yl]-3-methyl-6-(trifluoromethyl)-3H-imidazo[4,5-b]pyridine] | ≥ 90 | ≥ 90 |  | ≥ 50 | ≥ 50 | ≥ 70 | ≥ 90 | ≥ 90 | ≥ 70 | 100 | 
5 | CCS(=O)(=O)c1c2ccc(C(F)(F)F)cc2nn1-c1nc2cc(C(F)(F)F)cnc2n1C [1-10-001a, 2-[3-(ethylsulfonyl)-6-(trifluoromethyl)-2H-indazol-2-yl]-3-methyl-6-(trifluoromethyl)-3H-imidazo[4,5-b]pyridine] | ≥ 90 | ≥ 90 |  |  | ≥ 50 |  | ≥ 90 | ≥ 90 | ≥ 70 |  | ≥ 90
